Source: publication PMC11398567, “Structures of Native Doublet Microtubules from Trichomonas vaginalis Reveal Parasite-Specific Proteins as Potential Drug Targets” (Research Square, 2024)

Target: T1, TvFAP40 (Trichomonas vaginalis, UniProt A2DSS2)
T1 construct: gene TVAG_347810; native full-length protein in doublet microtubules isolated from parasite flagella; C-terminal residue Tyr377; head domain 1-145, coiled-coil tail 149-361; ligand in head domain
T1 sequence (A2DSS2 1-377): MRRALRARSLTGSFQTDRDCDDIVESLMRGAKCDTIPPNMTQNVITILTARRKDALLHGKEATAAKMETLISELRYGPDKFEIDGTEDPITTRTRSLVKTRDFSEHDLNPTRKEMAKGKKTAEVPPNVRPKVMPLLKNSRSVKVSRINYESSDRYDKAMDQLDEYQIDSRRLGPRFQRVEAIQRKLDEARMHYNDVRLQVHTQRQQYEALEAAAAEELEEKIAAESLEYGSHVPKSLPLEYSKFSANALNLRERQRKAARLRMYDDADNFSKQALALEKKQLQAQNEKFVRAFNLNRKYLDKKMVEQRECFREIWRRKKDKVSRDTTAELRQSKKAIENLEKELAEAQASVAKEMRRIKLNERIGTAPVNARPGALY
Experiment: cryo-EM structure of native doublet microtubules
Format: binding
Settings: co-purified endogenous ligand, putatively assigned from map density; positively charged pocket of head domain; likely metal cation nearby
Excerpt: cryo-EM structure of native doublet microtubules on TvFAP40 | consistent with bonding to a non-planar six-membered ring.

In the case of `O=P(O)(O)O[C@H]1[C@H](OP(=O)(O)O)[C@@H](OP(=O)(O)O)[C@H](OP(=O)(O)O)[C@@H](OP(=O)(O)O)[C@H]1OP(=O)(O)O` [IP6], the “cryo-EM structure of native doublet microtubules” value is reported as “consistent with bonding to a non-planar six-membered ring. Together these features suggested an inositol polyphosphate”.
